Experimental data from ChEMBL document CHEMBL1201862, “PubChem BioAssay data set” (2004).
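Compound exposure: 48 hours, 5 concentrations, 96-well plates. GI50 marks 50% less growth.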 Calls of active or inactive are those of the source. Rule as the data show it: active = GI50 up to about 1.1 µM and inactive = higher.

Experiments:
Experiment in all cases: NCI-60 cell line screen, 48 h
SNB-78 = test system: SNB-78
KM-20L2 = test system: KM-20L2
HOP-18 = test system: HOP-18
LXFL 529 = test system: LXFL 529
M19-MEL = test system: M19-MEL
XF498 = test system: XF498
DMS-273 = test system: DMS-273
DMS-114 = test system: DMS-114
RXF 631 = test system: RXF 631

Measured: GI50

O=C1CCCCC1S(=O)(=O)c1ccccc1 (stereo not drawn)
inactive: SNB-78 > 100 µM | KM-20L2 > 100 µM | HOP-18 > 100 µM | LXFL 529 > 100 µM | M19-MEL > 100 µM | XF498 > 100 µM | DMS-273 > 100 µM | DMS-114 > 100 µM

COc1cccc2c1C1(O)C2CCCCCCCCCC12OCCCO2 (stereo not drawn)
inactive: SNB-78 > 100 µM | KM-20L2 > 100 µM | HOP-18 > 100 µM | LXFL 529 45.6 µM | DMS-273 > 100 µM | DMS-114 > 100 µM

Cc1ccc(S(=O)(=O)NC(=O)NC23CC4CC(CC(F)(C4)C2)C3)cc1
inactive: SNB-78 > 100 µM | KM-20L2 > 100 µM | LXFL 529 > 100 µM | M19-MEL > 100 µM | XF498 > 100 µM | DMS-273 > 100 µM | DMS-114 > 100 µM

O=C1[C@H]2ON(c3ccccc3)C(c3ccc(Cl)cc3Cl)[C@H]2C(=O)N1c1ccc(Cc2ccc(N3C(=O)[C@@H]4ON(c5ccccc5)C(c5ccc(Cl)cc5Cl)[C@@H]4C3=O)cc2)cc1 (stereo partly drawn)
inactive: SNB-78 > 100 µM | KM-20L2 > 100 µM | HOP-18 > 100 µM | LXFL 529 > 100 µM | M19-MEL > 100 µM | DMS-273 > 100 µM | DMS-114 > 100 µM

CCCCCCCCCCSC(=O)NC
inactive: KM-20L2 > 10 µM | HOP-18 63 µM | LXFL 529 49.4 µM | M19-MEL 38.1 µM | XF498 21.3 µM | DMS-273 29.2 µM

COC(=O)C(C(=O)C(=O)Nc1ccc(OC)cc1[N+](=O)[O-])c1nc2cc(C)c(C)cc2nc1O (stereo not drawn)
inactive: SNB-78 > 100 µM | RXF 631 > 100 µM | KM-20L2 > 100 µM | HOP-18 > 100 µM | LXFL 529 > 100 µM | M19-MEL > 100 µM | DMS-114 > 100 µM

O=C(c1ccc(Cl)cc1)c1ccc(OCCCOc2ccc(C(=O)c3ccc(Cl)cc3)cc2Cl)c(Cl)c1
inactive: SNB-78 > 100 µM | RXF 631 > 100 µM | KM-20L2 > 100 µM | LXFL 529 > 100 µM | M19-MEL > 100 µM | XF498 > 100 µM | DMS-273 > 100 µM | DMS-114 > 100 µM

CC(=O)COC(=O)CC(C)=O
inactive: RXF 631 > 100 µM | KM-20L2 > 100 µM | LXFL 529 > 100 µM | M19-MEL > 100 µM | XF498 > 100 µM | DMS-273 > 100 µM | DMS-114 > 100 µM

CSc1n[n+]2c(s1)SCCC2
inactive: SNB-78 > 100 µM | RXF 631 > 100 µM | HOP-18 42.7 µM | LXFL 529 > 100 µM | M19-MEL > 100 µM | XF498 > 100 µM | DMS-273 > 100 µM | DMS-114 62.5 µM

NS(=O)(=O)c1ccc(Nc2c3ccccc3nc3c(C(=O)N4CCN(CCO)CC4)cccc23)cc1
inactive: SNB-78 69.3 µM | KM-20L2 > 100 µM | HOP-18 > 100 µM | LXFL 529 60.3 µM | M19-MEL > 100 µM | XF498 > 100 µM | DMS-273 82.6 µM | DMS-114 75.5 µM

C/C(=N\N=C(N)N)c1sc(-c2nc(C)c(/C(C)=N/N=C(N)N)s2)nc1C
inactive: SNB-78 > 100 µM | KM-20L2 > 100 µM | HOP-18 > 100 µM | LXFL 529 > 88.3 µM | M19-MEL > 100 µM | XF498 > 100 µM | DMS-273 > 100 µM

CN(CCc1ccccn1)/[N+]([O-])=N/O.CNCCc1ccccn1
inactive: SNB-78 > 100 µM | RXF 631 > 100 µM | KM-20L2 > 100 µM | HOP-18 > 100 µM | LXFL 529 > 100 µM | M19-MEL > 100 µM | DMS-273 > 100 µM | DMS-114 > 100 µM

Cc1cc2oc(=O)[nH]c(=S)c2c(C)c1C
inactive: KM-20L2 > 100 µM | HOP-18 > 100 µM | LXFL 529 > 100 µM | M19-MEL > 100 µM | XF498 > 100 µM | DMS-273 > 100 µM | DMS-114 > 100 µM

COc1cc2c(cc1OC)[C@H]1C(COC(=O)Nc3ccccc3)CN1CC2 (stereo partly drawn)
inactive: HOP-18 > 100 µM | LXFL 529 > 100 µM | M19-MEL > 100 µM | DMS-273 > 100 µM

CCCCCCCCCCCCCCCCCC(=O)O[C@H](COC(=O)CCCCCCCCCCC)COC(=O)CCCCCCCCCCCCCCC
inactive: RXF 631 > 100 µM | KM-20L2 > 100 µM | HOP-18 > 100 µM | LXFL 529 > 100 µM | M19-MEL > 100 µM | DMS-273 > 100 µM | DMS-114 > 100 µM

CCCCCCCCCCCCCCCCOCC(CN(C)CCN(C)C)OCCCCCCCCCCCCCCCC (stereo not drawn)
inactive: SNB-78 > 100 µM | RXF 631 > 100 µM | KM-20L2 > 100 µM | HOP-18 > 100 µM | LXFL 529 > 100 µM | M19-MEL > 100 µM | DMS-273 > 100 µM | DMS-114 > 100 µM

COc1cc(CC2c3cc(OC)c(OC)cc3CCN2C)ccc1O (stereo not drawn)
inactive: SNB-78 > 100 µM | KM-20L2 > 100 µM | HOP-18 > 100 µM | LXFL 529 > 100 µM | XF498 > 100 µM

Clc1ccc(-n2nnc(C3=NCCN3)c2-c2ccccc2)cc1
inactive: SNB-78 > 100 µM | KM-20L2 > 100 µM | HOP-18 > 100 µM | LXFL 529 > 100 µM | M19-MEL > 100 µM | XF498 > 100 µM | DMS-273 > 100 µM | DMS-114 > 100 µM

O=C(/C=C/c1ccc(O)cc1)c1ccc(O)cc1 [4,4'-DIHYDROXYCHALCONE]
inactive: SNB-78 45.2 µM | KM-20L2 20.3 µM | HOP-18 35.2 µM | M19-MEL 21.7 µM | XF498 19.3 µM | DMS-273 16.5 µM | DMS-114 18.9 µM
